Laboratory results published in US20250376483A1, “PRODRUGS OF PAN-KRAS INHIBITORS” (Mirati Therapeutics, Inc., priority 2022, published 2025).

Columns and labels:
[1] = Whole Blood Stability Assay (mouse whole blood); assay type: in vitro ADME; conditions: male, fresh whole blood; CD-1 mouse blood, EDTA-K2, final conc. 2 μM, 37° C., 0-120 min; read-out: Mouse Whole Blood Stability t1/2
Experimental: Whole Blood Stability Assay
This Example illustrates that exemplary compounds of the present invention is cleavage in mouse whole blood.
(§1) Test Compounds and Stock Solutions: Stock Conc. 10 mM; Final Conc. 2 μM
(§2) Test Compound and Control Working Solution Preparation:
• Intermediate solution: 5 μL of compound stock solution (10 mM in dimethyl sulfoxide (DMSO)) were diluted with […] of DMSO (intermediate solution concentration: 1 mM, 100% DMSO) • Propantheline bromide (control) intermediate solution: 5 μL of propantheline stock solution (10 mM in ultra-pure water) were diluted with 45 μL of ultra-pure water (intermediate solution concentration: 1 mM) • Working solution 1: 20 μL of test compound intermediate solution (1 mM) were diluted with 180 μL of 45% ACN/H2O (working solution concentration: […], 40.5% ACN, 10% DMSO) • Working solution 2: 20 μL of control intermediate solution (1 mM) were diluted with 180 μL of 45% ACN/H2O (working solution concentration: 100 μM, 40.5% ACN, 10% DMSO) • Species/Matrix: CD-1 Mouse Blood • No. of Individuals: n>3 Male • Anticoagulant Used: EDTA-K2
• The fresh blood was collected on the day of experiment and pre-warmed in a water bath at 37° C. • Using an Apricot automation workstation, 98 μL/well of blank blood were added to all 96-well reaction plates (Blank, T0, T10, T30, T60 and T120). • An Apricot automation workstation was used to add 2 μL/well of working solution (100 μM) to all reaction plates except Blank (T0, T10, T30, T60 and T120). • All reaction plates containing mixtures of compound and blood were incubated at 37° C. in water bath. • The reaction plates were incubated at 37° C., and timer was started. • At the end of incubation, mixed 100 μL water with 100 μL spiked blood samples, then added 800 μL of stop solution (200 ng/mL tolbutamide and 200 ng/mL labetalol in ACN) to precipitate protein. Mixed thoroughly. • Each plate was sealed and shaken for 20 minutes. • After shaking, each plate was centrifuged at 4000 rpm and 4° C. for 20 minutes. • After centrifugation, an Apricot automation workstation was used to transfer 150 μL of supernatant from each reaction plate to its corresponding bioanalysis plate. • Each bioanalysis plate was submitted to LC-MS/MS analysis.
• The % remaining of test compound after incubation in blood was calculated using following equation:
(§3) [formula] • where PAR is the peak area ratio of analyte versus internal standard (IS) • The appointed incubation time points are TO (0 min), Tn (n=0, 10, 30, 60 and 120 min)

[2] = Plasma Stability Assay (human plasma); assay type: in vitro ADME; conditions: both sexes; pooled human plasma, heparin, final conc. 2 μM, 37° C., 0-120 min; read-out: Human Plasma Stability t1/2
Experimental: This Example illustrates that exemplary compounds of the present invention is cleavage in human plasma.
as §1, §2
• Test compound intermediate solution: 10 μL of compound stock solution (10 mM in dimethyl sulfoxide (DMSO)) were diluted with 90 μL of DMSO (intermediate solution concentration: 1 mM, 100% DMSO) • Control intermediate solution: 10 μL of control stock solution (10 mM in dimethyl sulfoxide (DMSO)) were diluted with 90 μL of DMSO (intermediate solution concentration: 1 mM, 100% DMSO) • Species/Matrix: Human Plasma • No. of Individuals: 3 Male & 3 Female • Anticoagulant Used: Heparin
• The pooled frozen plasma was thawed in a water bath at 37° C. prior to experiment. Plasma was centrifuged at 4000 rpm for 5 min and the clots were removed if any. • Using an Apricot automation workstation, 98 μL/well of blank plasma were added to all 96-well reaction plates. (Blank, T0, T10, T30, T60 and T120) • An Apricot automation workstation was used to add 2 μL/well of working solution (100 μM) to all reaction plates except Blank. (T0, T10, T30, T60 and T120) • All reaction plates containing mixtures of compound and plasma were incubated at 37° C. in water bath. • The reaction plates were incubated at 37° C., and timer was started. • At the end of incubation, added 500 μL of stop solution (200 ng/mL tolbutamide and 200 ng/mL labetalol in ACN) to precipitate protein. Mixed thoroughly. • Each plate was sealed and shaken for 20 minutes. • After shaking, each plate was centrifuged at 4000 rpm and 4° C. for 20 minutes • After centrifugation, an Apricot automation workstation was used to transfer 50 μL supernatant into 100 μL HPLC water. • Each bioanalysis plate was sealed and shaken for 10 minutes prior to LC-MS/MS analysis Data Analysis • The % remaining of test compound after incubation in blood was calculated using following equation:
as §3

| Compound | half-life at 2 μM [1] [h] | half-life at 2 μM [2] [h] |
| --- | --- | --- |
| CCCCCC(=O)Oc1cc(-c2ncc3c(N4C[C@@H]5C[C@H](C4)[C@H](O)C5)nc(OC[C@@]45CCCN4C[C@H](F)C5)nc3c2F)c2c(CC)c(F)ccc2c1 [Example 18, 5-ethyl-6-fluoro-4-(8-fluoro-2-(((2R,7aS)-2-fluorotetrahydro-1H-pyrrolizin-7a(5H)-yl)methoxy)-4-((1R,5R,6R)-6-hydroxy-3-azabicyclo[3.2.1]octan-3-yl)pyrido[4,3-d]pyrimidin-7-yl)naphthalen-2-yl hexanoate] | < 0.0833 | 0.733 |
| CCc1c(F)ccc2cc(OC(=O)OC(C)C)cc(N3CCc4c(nc(OC[C@@]56CCCN5C[C@H](F)C6)nc4N4CCC[C@]5(C4)NC(=O)NC5=O)C3)c12 [Example 40, 4-(4-((R)-2,4-dioxo-1,3,7-triazaspiro[4.5]decan-7-yl)-2-(((2R,7aS)-2-fluorotetrahydro-1H-pyrrolizin-7a(5H)-yl)methoxy)-5,8-dihydropyrido[3,4-d]pyrimidin-7(6H)-yl)-5-ethyl-6-fluoronaphthalen-2-yl isopropyl carbonate] | 0.0333 | 1.58 |
| CCCCCCCC(=O)Oc1cc(N2CCc3c(nc(OC[C@@]45CCCN4C[C@H](F)C5)nc3N3CCC[C@]4(C3)NC(=O)NC4=O)C2)c2c(CC)c(F)ccc2c1 [Example 50, 4-(4-((R)-2,4-dioxo-1,3,7-triazaspiro[4.5]decan-7-yl)-2-(((2R,7aS)-2-fluorotetrahydro-1H-pyrrolizin-7a(5H)-yl)methoxy)-5,8-dihydropyrido[3,4-d]pyrimidin-7(6H)-yl)-5-ethyl-6-fluoronaphthalen-2-yl octanoate] | 0.217 | 3.92 |
| CCc1c(F)ccc2cc(OC(=O)N(C)C)cc(N3CCc4c(nc(OC[C@@]56CCCN5C[C@H](F)C6)nc4N4CCC[C@]5(C4)NC(=O)NC5=O)C3)c12 [Example 35, 4-(4-((R)-2,4-dioxo-1,3,7-triazaspiro[4.5]decan-7-yl)-2-(((2R,7aS)-2-fluorotetrahydro-1H-pyrrolizin-7a(5H)-yl)methoxy)-5,8-dihydropyrido[3,4-d]pyrimidin-7(6H)-yl)-5-ethyl-6-fluoronaphthalen-2-yl dimethylcarbamate] | > 4.82 | > 4.82 |
| CCc1c(F)ccc2cc(OC(=O)N3CCC[C@@H](C)C3)cc(N3CCc4c(nc(OC[C@@]56CCCN5C[C@H](F)C6)nc4N4CCC[C@]5(C4)NC(=O)NC5=O)C3)c12 [Example 58, 4-(4-((R)-2,4-dioxo-1,3,7-triazaspiro[4.5]decan-7-yl)-2-(((2R,7aS)-2-fluorotetrahydro-1H-pyrrolizin-7a(5H)-yl)methoxy)-5,8-dihydropyrido[3,4-d]pyrimidin-7(6H)-yl)-5-ethyl-6-fluoronaphthalen-2-yl (R)-3-methylpiperidine-1-carboxylate] | > 4.82 | > 4.82 |
| CCc1c(F)ccc2cc(OC(=O)N3CCCCC3)cc(-c3ncc4c(N5C[C@@H]6C[C@H](C5)[C@H](O)C6)nc(OC[C@@]56CCCN5C[C@H](F)C6)nc4c3F)c12 [Example 7, 5-ethyl-6-fluoro-4-(8-fluoro-2-(((2R,7aS)-2-fluorotetrahydro-1H-pyrrolizin-7a(5H)-yl)methoxy)-4-((1R,5R,6R)-6-hydroxy-3-azabicyclo[3.2.1]octan-3-yl)pyrido[4,3-d]pyrimidin-7-yl)naphthalen-2-yl piperidine-1-carboxylate] | > 4.82 | > 4.82 |
| CCc1c(F)ccc2cc(OC(=O)N3CCOCC3)cc(N3CCc4c(nc(OC[C@@]56CCCN5C[C@H](F)C6)nc4N4CCC[C@]5(C4)NC(=O)NC5=O)C3)c12 [Example 60, 4-(4-((R)-2,4-dioxo-1,3,7-triazaspiro[4.5]decan-7-yl)-2-(((2R,7aS)-2-fluorotetrahydro-1H-pyrrolizin-7a(5H)-yl)methoxy)-5,8-dihydropyrido[3,4-d]pyrimidin-7(6H)-yl)-5-ethyl-6-fluoronaphthalen-2-yl morpholine-4-carboxylate] | 1.32 | > 4.82 |
| CCc1c(F)ccc2cc(OC(=O)C3CC3)cc(-c3ncc4c(N5C[C@@H]6C[C@H](C5)[C@H](O)C6)nc(OC[C@@]56CCCN5C[C@H](F)C6)nc4c3F)c12 [Example 4, 5-ethyl-6-fluoro-4-(8-fluoro-2-(((2R,7aS)-2-fluorotetrahydro-1H-pyrrolizin-7a(5H)-yl)methoxy)-4-((1R,5R,6R)-6-hydroxy-3-azabicyclo[3.2.1]octan-3-yl)pyrido[4,3-d]pyrimidin-7-yl)naphthalen-2-yl cyclopropanecarboxylate] | 0.0833 | 0.283 |
| CCc1c(F)ccc2cc(OC(=O)C3CCCCC3)cc(N3CCc4c(nc(OC[C@@]56CCCN5C[C@H](F)C6)nc4N4CCC[C@]5(C4)NC(=O)NC5=O)C3)c12 [Example 47, 4-(4-((R)-2,4-dioxo-1,3,7-triazaspiro[4.5]decan-7-yl)-2-(((2R,7aS)-2-fluorotetrahydro-1H-pyrrolizin-7a(5H)-yl)methoxy)-5,8-dihydropyrido[3,4-d]pyrimidin-7(6H)-yl)-5-ethyl-6-fluoronaphthalen-2-yl cyclohexanecarboxylate] | 0.0667 | 3.72 |
| CCc1c(F)ccc2cc(OC(=O)N(CC)CC)cc(N3CCc4c(nc(OC[C@@]56CCCN5C[C@H](F)C6)nc4N4CCC[C@]5(C4)NC(=O)NC5=O)C3)c12 [Example 45, 4-(4-((R)-2,4-dioxo-1,3,7-triazaspiro[4.5]decan-7-yl)-2-(((2R,7aS)-2-fluorotetrahydro-1H-pyrrolizin-7a(5H)-yl)methoxy)-5,8-dihydropyrido[3,4-d]pyrimidin-7(6H)-yl)-5-ethyl-6-fluoronaphthalen-2-yl diethylcarbamate] | > 4.82 | > 4.82 |
| CCc1c(F)ccc2cc(OC(=O)C3CCC3)cc(N3CCc4c(nc(OC[C@@]56CCCN5C[C@H](F)C6)nc4N4CCC[C@]5(C4)NC(=O)NC5=O)C3)c12 [Example 64, 4-(4-((R)-2,4-dioxo-1,3,7-triazaspiro[4.5]decan-7-yl)-2-(((2R,7aS)-2-fluorotetrahydro-1H-pyrrolizin-7a(5H)-yl)methoxy)-5,8-dihydropyrido[3,4-d]pyrimidin-7(6H)-yl)-5-ethyl-6-fluoronaphthalen-2-yl cyclobutanecarboxylate] | 0.0333 | 0.55 |
| CCc1c(F)ccc2cc(OC(=O)N3CCC[C@H](C)C3)cc(N3CCc4c(nc(OC[C@@]56CCCN5C[C@H](F)C6)nc4N4CCC[C@]5(C4)NC(=O)NC5=O)C3)c12 [Example 59, 4-(4-((R)-2,4-dioxo-1,3,7-triazaspiro[4.5]decan-7-yl)-2-(((2R,7aS)-2-fluorotetrahydro-1H-pyrrolizin-7a(5H)-yl)methoxy)-5,8-dihydropyrido[3,4-d]pyrimidin-7(6H)-yl)-5-ethyl-6-fluoronaphthalen-2-yl (S)-3-methylpiperidine-1-carboxylate] | > 4.82 | > 4.82 |
